Active and inactive are the calls of the source. No cut-off for these calls is given here. Starred links: 1 amine or outer side, 2 acyl side, 3 side chain; linkers in the order of their positions; H or OH if unused. Positions of bridges follow the written chain, without caps; N, C: chain ends. Non-standard residues stand in square brackets, D forms with d. Residues, ends and D or L forms follow the SMILES beside them. ξ: configuration not given here. mXylylene = c1cc(C[*:1])cc(C[*:2])c1; ξhCys = NC(CCS)C(=O)O

In data set [1] the test system is Human immunodeficiency virus 1. The data set can be described thus: Antiviral activity against X4 tropic HIV-1 subtype-B 3B infected in human MT2 cells or CEMx174 5.25 M7 cells assessed as reduction in p24 Gag protein production measured at 4 days post-infection by ELISA. Type of data set: functional, cell-based, HIV-1 group M. The note with it: Human immunodeficiency virus 1, 3B, 96 h.

The test system of data set [2] is Human immunodeficiency virus 1. The data set can be described thus: Antiviral activity against R5 tropic HIV-1 subtype-B Bal infected in human MT2 cells or CEMx174 5.25 M7 cells assessed as reduction in p24 Gag protein production measured at 4 days post-infection by ELISA. Type of data set: functional, cell-based, HIV-1 group M. The note with it: Human immunodeficiency virus 1, Bal, 96 h.

Data set [3] deals with Envelope glycoprotein gp160 (Human immunodeficiency virus 1) (UniProt Q6QLK5). The data set can be described thus: Binding affinity to HIV1 GP41 using GP41 NHR derived N36 peptide assessed as formation of secondary structure at 10 uM incubated for 30 mins by CD spectroscopy.
Chain of Envelope glycoprotein gp160 (Human immunodeficiency virus 1) (Q6QLK5 1-814): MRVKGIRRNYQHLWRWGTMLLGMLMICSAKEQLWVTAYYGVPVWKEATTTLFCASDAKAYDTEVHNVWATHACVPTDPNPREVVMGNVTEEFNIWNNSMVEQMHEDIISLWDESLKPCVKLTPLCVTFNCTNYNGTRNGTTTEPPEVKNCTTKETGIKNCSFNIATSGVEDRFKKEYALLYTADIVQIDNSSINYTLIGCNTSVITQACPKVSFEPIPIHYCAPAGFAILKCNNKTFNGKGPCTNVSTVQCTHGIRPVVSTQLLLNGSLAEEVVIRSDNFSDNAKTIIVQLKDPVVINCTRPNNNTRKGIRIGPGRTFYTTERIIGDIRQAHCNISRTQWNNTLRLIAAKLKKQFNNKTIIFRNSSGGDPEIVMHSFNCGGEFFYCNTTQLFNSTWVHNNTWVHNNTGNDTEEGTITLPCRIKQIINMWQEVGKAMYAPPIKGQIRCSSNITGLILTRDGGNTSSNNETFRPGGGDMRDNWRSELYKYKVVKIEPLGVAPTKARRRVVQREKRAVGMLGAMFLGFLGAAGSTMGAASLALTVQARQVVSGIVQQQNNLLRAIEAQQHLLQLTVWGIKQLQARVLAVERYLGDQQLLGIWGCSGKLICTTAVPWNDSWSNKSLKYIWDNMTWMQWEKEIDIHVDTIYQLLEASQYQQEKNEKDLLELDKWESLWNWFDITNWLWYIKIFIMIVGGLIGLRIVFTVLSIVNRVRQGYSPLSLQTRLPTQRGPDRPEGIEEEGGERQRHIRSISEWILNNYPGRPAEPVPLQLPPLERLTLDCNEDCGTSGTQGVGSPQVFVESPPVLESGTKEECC
Data set [4] shares this target. The data set can be described thus: Binding affinity to HIV1 GP41 using GP41 NHR derived N36 peptide assessed as melting temperature at 10 uM incubated for 30 mins by CD spectroscopy.
Data set [5] shares this target. The data set can be described thus: Binding affinity to HIV1 GP41 using GP41 NHR derived N36 peptide assessed as formation of oligomeric complex at 100 uM incubated for 30 mins by Coomassie blue R250 staining based Native-PAGE analysis.
For data set [6] the target is unchanged. The data set can be described thus: Binding affinity to HIV1 GP41 using GP41 NHR derived N36 peptide assessed as molecular weight at 150 uM incubated for 30 mins by sedimentation Velocity analysis.
Data set [7] shares this target. The data set can be described thus: Binding affinity to HIV1 GP41 using GP41 NHR derived N36 peptide at 500 uM incubated for 30 mins by size exclusion HPLC analysis.
A short description of data set [8]: Cytotoxicity against human TZM-bl cells assessed as reduction in viability after 2 days by XTT assay. The class given is cell-based.

Consider `CC[C@H](C)[C@H](NC(C)=O)C(=O)N[C@@H](CCC(=O)O)C(=O)N[C@@H](C)C(=O)N[C@@H](CC(C)C)C(=O)N[C@H](C(=O)NC1CCSCc2cccc(c2)CSCCC(C(=O)N[C@@H](CCC(N)=O)C(=O)N[C@@H](CCC(N)=O)C(=O)N[C@@H](CCC(=O)O)C(=O)N[C@@H](CCCCN)C(=O)N[C@@H](CC(N)=O)C(=O)N[C@@H](CCC(=O)O)C(=O)N[C@@H](C)C(=O)N[C@@H](C)C(=O)N[C@@H](CC(C)C)C(=O)N[C@@H](CCCNC(=N)N)C(=O)N[C@@H](CCC(=O)O)C(=O)N[C@@H](CC(C)C)C(N)=O)NC(=O)[C@H](CCC(N)=O)NC(=O)[C@H](C)NC(=O)[C@H](C)NC1=O)[C@@H](C)CC` (stereo partly specified) (Ac-IEALI[ξhCys]AAQ[ξhCys]QQEKNEAALREL-NH2; linker 6-10 via mXylylene), for which the values for the 50% effective concentration (EC50) in data set [1] and in data set [2] were 44.4 nM and 69.1 nM, respectively. The outcome in data set [3], in data set [5] and in data set [7] was Active. Also, the Tm in data set [4] came out at 52.4 °C. Moreover, the Activity in data set [6] came out at 8.4 kDa.
As to Ac-IEALIRAAQEQQEKNEAALREL-NH2, the Tm in data set [4] is 48.2 °C.
As to `CC[C@H](C)[C@H](NC(C)=O)C(=O)N[C@@H](CCC(=O)O)C(=O)N[C@@H](C)C(=O)N[C@@H](CC(C)C)C(=O)N[C@H](C(=O)NC1CCSCc2cccc(c2)CSCCC(C(=O)N[C@@H](CCC(N)=O)C(=O)N[C@@H](CCC(N)=O)C(=O)N[C@@H](CCCNC(=N)N)C(=O)N[C@@H](CCCCN)C(=O)N[C@@H](CC(N)=O)C(=O)N[C@@H](CCC(=O)O)C(=O)N[C@@H](CCC(=O)O)C(=O)N[C@@H](C)C(=O)N[C@@H](CC(C)C)C(=O)N[C@@H](CCCNC(=N)N)C(=O)N[C@@H](CCC(=O)O)C(=O)N[C@@H](CC(C)C)C(N)=O)NC(=O)[C@H](CCC(N)=O)NC(=O)[C@H](C)NC(=O)[C@H](C)NC1=O)[C@@H](C)CC` (stereo partly specified) (Ac-IEALI[ξhCys]AAQ[ξhCys]QQRKNEEALREL-NH2; linker 6-10 via mXylylene), the CC50 at 48 h in data set [8] was > 800000 nM. Further, the EC50 in data set [1] was 18.4 nM; in data set [2], 27.7 nM. In addition, the result in data set [3], in data set [5] and in data set [7] was Active. Besides, the Tm in data set [4] came out at 56.9 °C. Also, the Activity in data set [6] came out at 18.7 kDa.

(Values after ChEMBL document CHEMBL4334495, “Design and Biological Evaluation of m-Xylene Thioether-Stapled Short Helical Peptides Targeting the HIV-1 gp41 Hexameric Coiled-Coil Fusion Complex” (J Med Chem, 2019).)
